Test results from PubChem BioAssay AID192 (DTP/NCI, 2004).
Values joined by “and” are separate entries in the source; they are usually repeats but may differ in a detail not shown here. Identical values can stand only once. Inconclusive results and toxic doses are left out. Square brackets hold non-standard residues; d marks the D form. Peptide text beside a SMILES is read from it. ξ: configuration not given here. ξLac(3-iPr) = CC(C)CC(O)C(=O)O; NMeV = CN[CH](C(=O)O)C(C)C; NMeA = CN[CH](C)C(=O)O; βAla = NCCC(=O)O

System: BDF1 mice, B16 melanoma ip, median survival T/C
Test: NCI In Vivo Anticancer Drug Screen. Data for tumor model B16 Melanoma (intraperitoneal) in B6D2F1 (BDF1) mice
Conditions: endpoint: median survival time, higher = longer survival
How it was run: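 Values are ratios of treated (T) to vehicle-control (C) measurements of survival or tumor size in tumor-bearing mice.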

## CC[C@]1(O)C[C@H]2CN(CCc3c([nH]c4ccccc34)[C@@](C(=O)OC)(c3cc4c(cc3OC)N(C=O)[C@H]3[C@@](O)(C(=O)OC)[C@H](OC(C)=O)[C@]5(CC)C=CCN6CC[C@]43[C@@H]65)C2)C1
dose: 0.06 mg/kg/injection, schedule: Q01DX009 (ip), vehicle: saline
  T/C: 154 % of control
dose: 0.06 mg/kg/injection, schedule: Q01DX009 (ip), vehicle: water
  T/C: 168 % of control
dose: 0.06 mg/kg/injection, schedule: Q01DX017 (ip), vehicle: saline
  T/C: 156 % of control
dose: 0.08 mg/kg/injection, schedule: Q01DX009 (ip), vehicle: water
  T/C: 123 % of control
dose: 0.12 mg/kg/injection, schedule: Q04DX003 (ip), vehicle: saline
  T/C: 123 % of control
dose: 0.13 mg/kg/injection, schedule: Q01DX017 (ip), vehicle: saline
  T/C: 181 % of control
dose: 0.13 mg/kg/injection, schedule: Q04DX003 (ip), vehicle: saline
  T/C: 110 % of control
dose: 0.18 mg/kg/injection, schedule: Q01DX005 (ip), vehicle: saline
  T/C: 121 % of control
dose: 0.2 mg/kg/injection, schedule: Q01DX009 (ip), vehicle: saline
  T/C: 152 % of control and 171 % of control
dose: 0.23 mg/kg/injection, schedule: Q04DX003 (ip), vehicle: water
  T/C: 119 % of control and 121 % of control
dose: 0.25 mg/kg/injection, schedule: Q01DX009 (ip), vehicle: water
  T/C: 176 % of control and 189 % of control
dose: 0.25 mg/kg/injection, schedule: Q01DX017 (ip), vehicle: saline
  T/C: 197 % of control
dose: 0.3 mg/kg/injection, schedule: Q01DX005 (ip), vehicle: saline
  T/C: 119 % of control
dose: 0.36 mg/kg/injection, schedule: Q01DX009 (ip), vehicle: water
  T/C: 163 % of control
dose: 0.36 mg/kg/injection, schedule: Q04DX003 (ip), vehicle: saline
  T/C: 114 % of control
dose: 0.39 mg/kg/injection, schedule: Q04DX003 (ip), vehicle: saline
  T/C: 124 % of control
dose: 0.39 mg/kg/injection, schedule: Q04DX003 (ip), vehicle: water
  T/C: 119 % of control
dose: 0.4 mg/kg/injection, schedule: Q01DX009 (ip), vehicle: saline
  T/C: 178 % of control
dose: 0.5 mg/kg/injection, schedule: Q01DX001 (ip), vehicle: saline
  T/C: 120 % of control
dose: 0.5 mg/kg/injection, schedule: Q01DX009 (ip), vehicle: water
  T/C: 155 % of control and 163 % of control and 192 % of control
dose: 0.5 mg/kg/injection, schedule: Q04DX003 (ip), vehicle: saline
  T/C: 154 % of control
dose: 0.5 mg/kg/injection, schedule: Q04DX005 (ip), vehicle: saline
  T/C: 163 % of control
dose: 0.54 mg/kg/injection, schedule: Q04DX003 (ip), vehicle: saline
  T/C: 157 % of control
dose: 0.6 mg/kg/injection, schedule: Q04DX003 (ip), vehicle: saline
  T/C: 150 % of control and 152 % of control and 176 % of control
dose: 0.65 mg/kg/injection, schedule: Q01DX001 (ip), vehicle: water
  T/C: 118 % of control and 120 % of control
dose: 0.65 mg/kg/injection, schedule: Q04DX003 (ip), vehicle: saline
  T/C: 102 % of control
dose: 0.75 mg/kg/injection, schedule: Q04DX003 (ip), vehicle: saline
  T/C: 152 % of control
dose: 0.8 mg/kg/injection, schedule: Q04DX003 (ip), vehicle: water
  T/C: 116 % of control
dose: 1.0 mg/kg/injection, schedule: Q01DX001 (ip), vehicle: saline
  T/C: 120 % of control
dose: 1.0 mg/kg/injection, schedule: Q04DX005 (ip), vehicle: saline
  T/C: 181 % of control
dose: 1.08 mg/kg/injection, schedule: Q01DX001 (ip), vehicle: water
  T/C: 124 % of control
dose: 1.08 mg/kg/injection, schedule: Q04DX003 (ip), vehicle: saline
  T/C: 156 % of control
dose: 1.2 mg/kg/injection, schedule: Q04DX003 (ip), vehicle: saline
  T/C: 160 % of control and 198 % of control
dose: 1.5 mg/kg/injection, schedule: Q04DX003 (ip), vehicle: saline
  T/C: 150 % of control and 158 % of control
dose: 1.67 mg/kg/injection, schedule: Q04DX003 (ip), vehicle: saline
  T/C: 54 % of control
dose: 1.8 mg/kg/injection, schedule: Q01DX001 (ip), vehicle: water
  T/C: 122 % of control and 124 % of control
dose: 1.8 mg/kg/injection, schedule: Q04DX003 (ip), vehicle: saline
  T/C: 159 % of control
dose: 1.8 mg/kg/injection, schedule: Q04DX003 (ip), vehicle: water
  T/C: 151 % of control
dose: 2.0 mg/kg/injection, schedule: Q04DX003 (ip), vehicle: saline
  T/C: 173 % of control and 180 % of control
dose: 3.0 mg/kg/injection, schedule: Q04DX003 (ip), vehicle: saline
  T/C: 67 % of control
dose: 15.63 micrograms/kg/injection, schedule: Q01DX009 (ip), vehicle: water
  T/C: 110 % of control
dose: 62.5 micrograms/kg/injection, schedule: Q01DX009 (ip), vehicle: water
  T/C: 150 % of control
dose: 78.0 micrograms/kg/injection, schedule: Q01DX009 (ip), vehicle: saline
  T/C: 165 % of control
dose: 78.0 micrograms/kg/injection, schedule: Q01DX009 (ip), vehicle: water
  T/C: 123 % of control
dose: 125.0 micrograms/kg/injection, schedule: Q01DX009 (ip), vehicle: water
  T/C: 159 % of control
dose: 130.0 micrograms/kg/injection, schedule: Q01DX009 (ip), vehicle: saline
  T/C: 157 % of control
dose: 216.0 micrograms/kg/injection, schedule: Q01DX009 (ip), vehicle: saline
  T/C: 183 % of control
dose: 216.0 micrograms/kg/injection, schedule: Q04DX003 (ip), vehicle: saline
  T/C: 123 % of control
dose: 250.0 micrograms/kg/injection, schedule: Q01DX009 (ip), vehicle: water
  T/C: 175 % of control
dose: 360.0 micrograms/kg/injection, schedule: Q01DX009 (ip), vehicle: saline
  T/C: 160 % of control
dose: 389.0 micrograms/kg/injection, schedule: Q04DX003 (ip), vehicle: saline
  T/C: 158 % of control
dose: 600.0 micrograms/kg/injection, schedule: Q04DX003 (ip), vehicle: saline
  T/C: 155 % of control
dose: 648.0 micrograms/kg/injection, schedule: Q04DX003 (ip), vehicle: saline
  T/C: 153 % of control
dose: 1000.0 micrograms/kg/injection, schedule: Q04DX003 (ip), vehicle: saline
  T/C: 152 % of control and 166 % of control
dose: 1080.0 micrograms/kg/injection, schedule: Q04DX003 (ip), vehicle: saline
  T/C: 157 % of control
dose: 1670.0 micrograms/kg/injection, schedule: Q04DX003 (ip), vehicle: saline
  T/C: 179 % of control
dose: 1800.0 micrograms/kg/injection, schedule: Q04DX003 (ip), vehicle: saline
  T/C: 174 % of control

## C[N+](C)(C)c1ncnc2c1ncn2C1CCCO1 (stereo not drawn)
dose: 6.25 mg/kg/injection, schedule: Q01DX009 (ip), vehicle: saline
  T/C: 111 % of control
dose: 12.5 mg/kg/injection, schedule: Q01DX009 (ip), vehicle: saline
  T/C: 105 % of control
dose: 25.0 mg/kg/injection, schedule: Q01DX009 (ip), vehicle: saline
  T/C: 108 % of control
dose: 50.0 mg/kg/injection, schedule: Q01DX009 (ip), vehicle: saline
  T/C: 111 % of control
dose: 100.0 mg/kg/injection, schedule: Q01DX009 (ip), vehicle: saline
  T/C: 117 % of control

## CCC(C)C1NC(=O)C2CCCN2C(=O)C(CC(C)C)OC(=O)CCNC(=O)C(C)N(C)C(=O)C(C(C)C)N(C)C1=O (stereo not drawn) (cyclo([ξLac(3-iPr)]PI[NMeV][NMeA][βAla]); configuration not given here)
dose: 1.25 mg/kg/injection, schedule: Q01DX009 (ip), vehicle: saline
  T/C: 112 % of control
dose: 2.5 mg/kg/injection, schedule: Q01DX009 (ip), vehicle: saline
  T/C: 111 % of control
dose: 5.0 mg/kg/injection, schedule: Q01DX009 (ip), vehicle: saline
  T/C: 105 % of control
dose: 10.0 mg/kg/injection, schedule: Q01DX009 (ip), vehicle: saline
  T/C: 107 % of control

## CCOC(=O)c1cnc(SC)nc1Sc1ccc(Cl)cc1
dose: 100.0 mg/kg/injection, schedule: Q04DX003 (ip), vehicle: Klucel (hydroxypropylcellulose) (HPC)
  T/C: 100 % of control
dose: 200.0 mg/kg/injection, schedule: Q04DX003 (ip), vehicle: Klucel (hydroxypropylcellulose) (HPC)
  T/C: 99 % of control
dose: 400.0 mg/kg/injection, schedule: Q04DX003 (ip), vehicle: Klucel (hydroxypropylcellulose) (HPC)
  T/C: 89 % of control

## CCc1cccc(CC)c1N1C(=O)C=CC1=O
dose: 0.2 mg/kg/injection, schedule: Q01DX009 (ip), vehicle: saline with Tween-80
  T/C: 97 % of control
dose: 0.39 mg/kg/injection, schedule: Q01DX009 (ip), vehicle: saline with Tween-80
  T/C: 99 % of control
dose: 0.78 mg/kg/injection, schedule: Q01DX009 (ip), vehicle: saline with Tween-80
  T/C: 92 % of control
dose: 1.56 mg/kg/injection, schedule: Q01DX009 (ip), vehicle: saline with Tween-80
  T/C: 86 % of control and 90 % of control

## CC(=O)CC(=O)Nc1cccc(C)c1C
dose: 100.0 mg/kg/injection, schedule: Q01DX009 (ip), vehicle: Klucel (hydroxypropylcellulose) (HPC)
  T/C: 94 % of control
dose: 200.0 mg/kg/injection, schedule: Q01DX009 (ip), vehicle: Klucel (hydroxypropylcellulose) (HPC)
  T/C: 86 % of control
dose: 400.0 mg/kg/injection, schedule: Q01DX009 (ip), vehicle: Klucel (hydroxypropylcellulose) (HPC)
  T/C: 94 % of control

## CCOC(=O)c1ccc(NS(=O)c2ccccc2)cc1 (stereo not drawn)
dose: 50.0 mg/kg/injection, schedule: Q01DX009 (ip), vehicle: saline with Tween-80
  T/C: 105 % of control
dose: 100.0 mg/kg/injection, schedule: Q01DX009 (ip), vehicle: saline with Tween-80
  T/C: 91 % of control
